By AC50 is commonly meant the concentration at which the activity in the assay is half-maximal. High values mean activity only at high concentration, low ones activity at low concentration.

The record followed here is ChEMBL document CHEMBL5291721, “A preclinical secondary pharmacology resource illuminates target-adverse drug reaction associations of marketed drugs” (Nat Commun, 2023).

In experiment [1] the target is T1, Androgen receptor (Rattus norvegicus, UniProt P15207).
T1 sequence (P15207 whole entry): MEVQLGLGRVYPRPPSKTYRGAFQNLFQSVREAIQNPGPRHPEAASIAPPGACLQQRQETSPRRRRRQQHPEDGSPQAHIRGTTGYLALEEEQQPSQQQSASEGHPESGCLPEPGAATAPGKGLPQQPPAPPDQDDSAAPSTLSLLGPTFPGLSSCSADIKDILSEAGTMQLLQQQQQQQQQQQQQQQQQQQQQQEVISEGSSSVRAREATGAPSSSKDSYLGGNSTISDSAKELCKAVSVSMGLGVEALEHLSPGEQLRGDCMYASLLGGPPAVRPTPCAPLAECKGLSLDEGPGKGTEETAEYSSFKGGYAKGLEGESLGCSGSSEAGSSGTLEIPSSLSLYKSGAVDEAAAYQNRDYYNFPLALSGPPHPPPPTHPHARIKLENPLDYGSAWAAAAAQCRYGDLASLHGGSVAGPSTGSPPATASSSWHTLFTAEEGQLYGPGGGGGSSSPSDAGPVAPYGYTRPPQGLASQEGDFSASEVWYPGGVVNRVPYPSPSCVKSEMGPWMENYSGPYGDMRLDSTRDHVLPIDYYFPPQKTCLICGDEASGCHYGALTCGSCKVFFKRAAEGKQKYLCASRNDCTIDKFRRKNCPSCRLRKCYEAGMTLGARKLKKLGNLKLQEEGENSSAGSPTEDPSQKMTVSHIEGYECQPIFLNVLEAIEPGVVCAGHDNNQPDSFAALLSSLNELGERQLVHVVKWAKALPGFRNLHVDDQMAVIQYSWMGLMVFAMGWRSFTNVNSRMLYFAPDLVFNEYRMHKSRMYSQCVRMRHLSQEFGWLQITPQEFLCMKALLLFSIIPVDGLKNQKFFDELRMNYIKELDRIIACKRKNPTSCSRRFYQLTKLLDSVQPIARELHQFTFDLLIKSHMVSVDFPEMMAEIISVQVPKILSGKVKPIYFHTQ

Experiment [2] has as its target T1, Androgen receptor. Format: functional.
In experiment [3] the target is T1, Androgen receptor. The experiment is classed as functional. This is another data set of the same source.
For experiment [4], the target named is T2, Muscarinic acetylcholine receptor M2 (Homo sapiens, UniProt P08172).
T2 sequence (P08172 whole entry): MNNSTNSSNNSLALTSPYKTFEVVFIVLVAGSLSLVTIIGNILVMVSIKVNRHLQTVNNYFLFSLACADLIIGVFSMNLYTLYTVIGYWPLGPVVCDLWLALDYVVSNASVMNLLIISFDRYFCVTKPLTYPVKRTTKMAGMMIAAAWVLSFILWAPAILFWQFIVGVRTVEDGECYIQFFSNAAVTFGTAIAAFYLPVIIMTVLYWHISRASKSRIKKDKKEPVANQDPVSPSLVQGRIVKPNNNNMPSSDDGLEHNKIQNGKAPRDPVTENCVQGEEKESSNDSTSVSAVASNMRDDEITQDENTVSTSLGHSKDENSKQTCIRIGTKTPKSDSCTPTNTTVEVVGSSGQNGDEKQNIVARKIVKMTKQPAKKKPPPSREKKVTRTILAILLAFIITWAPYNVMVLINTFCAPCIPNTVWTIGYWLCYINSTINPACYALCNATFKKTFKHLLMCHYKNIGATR

In experiment [5] the target is D(1A) dopamine receptor (Homo sapiens, UniProt P21728).
Sequence of D(1A) dopamine receptor (P21728 whole entry): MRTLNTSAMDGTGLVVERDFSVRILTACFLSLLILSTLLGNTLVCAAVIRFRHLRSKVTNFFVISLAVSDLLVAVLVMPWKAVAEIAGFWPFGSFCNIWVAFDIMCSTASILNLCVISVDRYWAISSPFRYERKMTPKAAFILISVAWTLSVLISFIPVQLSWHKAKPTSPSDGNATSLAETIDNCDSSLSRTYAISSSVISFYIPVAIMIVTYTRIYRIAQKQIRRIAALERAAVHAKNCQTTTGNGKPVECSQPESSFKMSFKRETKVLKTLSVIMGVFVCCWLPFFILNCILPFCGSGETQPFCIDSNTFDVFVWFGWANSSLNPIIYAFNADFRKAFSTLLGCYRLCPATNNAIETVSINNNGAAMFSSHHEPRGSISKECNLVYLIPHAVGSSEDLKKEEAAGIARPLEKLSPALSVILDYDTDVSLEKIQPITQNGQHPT
The target in experiment [6] is T3, Progesterone receptor (Homo sapiens, UniProt P06401).
T3 sequence (P06401 whole entry): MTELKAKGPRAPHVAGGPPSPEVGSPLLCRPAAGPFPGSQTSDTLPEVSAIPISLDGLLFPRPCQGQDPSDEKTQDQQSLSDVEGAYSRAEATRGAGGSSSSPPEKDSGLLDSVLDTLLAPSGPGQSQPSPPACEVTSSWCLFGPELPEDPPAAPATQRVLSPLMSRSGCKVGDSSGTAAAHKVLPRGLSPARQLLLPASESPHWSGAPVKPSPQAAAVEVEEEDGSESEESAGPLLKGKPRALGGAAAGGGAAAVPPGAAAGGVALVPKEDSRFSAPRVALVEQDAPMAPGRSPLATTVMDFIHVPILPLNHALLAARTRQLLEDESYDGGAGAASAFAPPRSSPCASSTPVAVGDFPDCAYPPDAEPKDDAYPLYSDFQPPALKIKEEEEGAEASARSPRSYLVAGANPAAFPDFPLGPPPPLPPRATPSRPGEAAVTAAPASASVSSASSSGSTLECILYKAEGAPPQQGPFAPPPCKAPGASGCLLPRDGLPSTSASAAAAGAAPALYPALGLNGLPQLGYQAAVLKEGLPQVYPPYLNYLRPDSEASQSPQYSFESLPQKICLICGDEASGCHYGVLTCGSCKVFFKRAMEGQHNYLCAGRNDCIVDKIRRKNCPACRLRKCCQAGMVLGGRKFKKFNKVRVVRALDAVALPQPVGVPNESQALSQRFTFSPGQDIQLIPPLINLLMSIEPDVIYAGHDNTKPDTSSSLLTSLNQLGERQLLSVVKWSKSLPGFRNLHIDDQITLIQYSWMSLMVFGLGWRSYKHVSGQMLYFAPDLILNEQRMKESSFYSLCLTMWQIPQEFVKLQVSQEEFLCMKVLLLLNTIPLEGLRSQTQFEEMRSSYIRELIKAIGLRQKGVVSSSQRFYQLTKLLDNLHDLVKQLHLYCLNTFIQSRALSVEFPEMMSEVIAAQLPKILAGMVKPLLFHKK

Experiment [7] addresses Beta-3 adrenergic receptor (Homo sapiens, UniProt P13945).
Experiment [8] addresses T4, 5-hydroxytryptamine receptor 1A (Homo sapiens, UniProt P08908).
T4 sequence (P08908 whole entry): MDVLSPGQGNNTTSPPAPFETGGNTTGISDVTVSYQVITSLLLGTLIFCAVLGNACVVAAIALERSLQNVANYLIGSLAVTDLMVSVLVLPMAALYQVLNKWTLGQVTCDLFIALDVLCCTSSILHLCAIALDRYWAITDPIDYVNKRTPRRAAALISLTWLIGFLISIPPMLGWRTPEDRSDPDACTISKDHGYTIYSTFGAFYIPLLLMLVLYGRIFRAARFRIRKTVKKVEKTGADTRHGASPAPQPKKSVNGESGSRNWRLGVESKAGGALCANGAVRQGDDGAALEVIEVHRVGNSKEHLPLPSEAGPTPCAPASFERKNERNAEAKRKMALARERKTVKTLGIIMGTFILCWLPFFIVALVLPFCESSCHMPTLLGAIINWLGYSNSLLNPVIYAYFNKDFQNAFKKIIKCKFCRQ

Experiment [9] has as its target Gamma-aminobutyric acid receptor subunit alpha-1/alpha-2/beta-2/gamma-2 (Homo sapiens, UniProt P14867+P18507+P47869+P47870). The experiment is classed as functional, cell-based.
Also: assay procedure not described here.

Sequence of Gamma-aminobutyric acid receptor subunit alpha-1/alpha-2/beta-2/gamma-2 (P14867 whole entry): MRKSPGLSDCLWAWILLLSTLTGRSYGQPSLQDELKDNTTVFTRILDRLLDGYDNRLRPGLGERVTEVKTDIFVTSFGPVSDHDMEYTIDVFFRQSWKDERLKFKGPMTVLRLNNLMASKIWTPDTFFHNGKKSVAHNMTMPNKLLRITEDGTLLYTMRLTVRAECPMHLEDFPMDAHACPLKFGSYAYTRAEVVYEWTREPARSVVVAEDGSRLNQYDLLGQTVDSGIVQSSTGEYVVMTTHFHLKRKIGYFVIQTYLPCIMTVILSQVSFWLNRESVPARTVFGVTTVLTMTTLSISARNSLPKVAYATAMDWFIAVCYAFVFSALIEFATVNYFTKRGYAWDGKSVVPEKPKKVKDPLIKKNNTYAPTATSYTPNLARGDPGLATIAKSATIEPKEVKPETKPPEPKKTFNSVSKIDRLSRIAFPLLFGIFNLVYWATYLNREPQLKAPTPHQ
Sequence of Gamma-aminobutyric acid receptor subunit alpha-1/alpha-2/beta-2/gamma-2 (P47870 whole entry): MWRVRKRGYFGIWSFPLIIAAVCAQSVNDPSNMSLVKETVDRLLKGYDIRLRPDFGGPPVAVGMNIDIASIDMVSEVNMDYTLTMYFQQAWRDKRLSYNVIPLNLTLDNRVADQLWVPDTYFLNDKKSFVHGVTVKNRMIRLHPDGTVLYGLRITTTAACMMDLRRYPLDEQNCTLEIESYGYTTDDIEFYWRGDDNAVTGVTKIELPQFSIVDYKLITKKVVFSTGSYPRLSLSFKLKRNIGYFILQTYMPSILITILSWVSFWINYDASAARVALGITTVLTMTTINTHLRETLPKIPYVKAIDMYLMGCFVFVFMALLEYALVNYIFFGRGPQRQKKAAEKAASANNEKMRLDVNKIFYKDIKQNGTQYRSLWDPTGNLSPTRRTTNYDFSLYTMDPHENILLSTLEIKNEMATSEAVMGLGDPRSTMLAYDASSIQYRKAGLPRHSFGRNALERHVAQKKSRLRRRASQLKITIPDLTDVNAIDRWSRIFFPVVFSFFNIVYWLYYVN
Sequence of Gamma-aminobutyric acid receptor subunit alpha-1/alpha-2/beta-2/gamma-2 (P18507 whole entry): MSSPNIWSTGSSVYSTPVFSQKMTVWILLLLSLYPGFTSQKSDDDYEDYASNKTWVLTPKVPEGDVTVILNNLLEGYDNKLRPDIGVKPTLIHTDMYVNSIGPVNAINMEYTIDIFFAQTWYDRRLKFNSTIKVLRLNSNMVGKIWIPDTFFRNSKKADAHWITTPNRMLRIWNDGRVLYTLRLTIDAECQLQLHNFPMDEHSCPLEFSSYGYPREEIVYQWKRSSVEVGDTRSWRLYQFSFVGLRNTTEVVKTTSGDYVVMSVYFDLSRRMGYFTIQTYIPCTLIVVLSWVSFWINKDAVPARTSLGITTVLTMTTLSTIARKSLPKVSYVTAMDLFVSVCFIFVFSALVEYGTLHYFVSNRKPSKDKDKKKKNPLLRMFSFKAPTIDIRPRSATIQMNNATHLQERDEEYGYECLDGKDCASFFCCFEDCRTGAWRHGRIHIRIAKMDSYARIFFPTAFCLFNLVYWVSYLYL
Sequence of Gamma-aminobutyric acid receptor subunit alpha-1/alpha-2/beta-2/gamma-2 (P47869 whole entry): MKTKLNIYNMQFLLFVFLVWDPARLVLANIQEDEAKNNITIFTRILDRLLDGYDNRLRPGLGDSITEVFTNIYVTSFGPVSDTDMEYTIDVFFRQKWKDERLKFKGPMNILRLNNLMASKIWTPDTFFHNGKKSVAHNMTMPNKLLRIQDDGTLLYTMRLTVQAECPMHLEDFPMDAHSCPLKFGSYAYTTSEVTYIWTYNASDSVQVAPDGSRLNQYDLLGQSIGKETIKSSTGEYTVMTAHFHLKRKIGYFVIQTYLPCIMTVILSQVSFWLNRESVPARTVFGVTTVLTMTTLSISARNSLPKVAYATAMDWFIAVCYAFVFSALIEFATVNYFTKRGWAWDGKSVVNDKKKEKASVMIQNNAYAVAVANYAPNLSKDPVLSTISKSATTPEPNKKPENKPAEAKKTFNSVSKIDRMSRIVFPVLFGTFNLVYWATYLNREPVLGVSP
Sequence of Beta-3 adrenergic receptor (P13945 whole entry): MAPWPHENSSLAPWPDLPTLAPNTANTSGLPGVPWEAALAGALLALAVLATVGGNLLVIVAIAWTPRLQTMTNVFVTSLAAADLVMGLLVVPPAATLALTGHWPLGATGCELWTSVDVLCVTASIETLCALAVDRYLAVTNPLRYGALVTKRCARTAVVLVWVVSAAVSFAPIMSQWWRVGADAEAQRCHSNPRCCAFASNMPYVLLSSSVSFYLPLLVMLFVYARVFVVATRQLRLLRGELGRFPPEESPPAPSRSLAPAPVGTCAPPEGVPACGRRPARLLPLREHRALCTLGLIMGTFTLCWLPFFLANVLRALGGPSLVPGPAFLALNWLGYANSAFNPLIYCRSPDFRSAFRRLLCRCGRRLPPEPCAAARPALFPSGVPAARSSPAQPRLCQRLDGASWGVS

`COc1cc2c(cc1OC)C(CCc1ccc(Cl)cc1)N(C)CC2` (stereo unspecified) [METHOPHOLINE] returned an AC50 in [1] above 30 µM.
As for `NC1CCN(c2nc3c(cc2F)c(=O)c(C(=O)O)cn3-c2ccc(F)cc2F)C1` (stereo unspecified) [TOSUFLOXACIN], the AC50 in experiment [2] and in experiment [3] was above 30 µM in each case.
On to `C[N@+]1(CCF)[C@@H]2CC[C@H]1C[C@@H](OC(=O)C(O)(c1ccccc1)c1ccccc1)C2`, for which, in experiment [4], the AC50 came to 0.2 µM.
As to `CCCCCCCCCCCCCCCCCCCCCC(=O)Nc1ccn([C@@H]2O[C@H](CO)[C@@H](O)[C@@H]2O)c(=O)n1` [ENOCITABINE], the AC50 in experiment [2] and in [3] was above 30 µM in each case.
In the case of `OCc1cc(C(O)CNCCCCCCOCCCCc2ccccc2)ccc1O` (stereo unspecified) [SALMETEROL], the half-maximal activity concentration (AC50) in [5] is above 10 µM.
In the case of `Nc1cc(-c2ccncc2)c[nH]c1=O` [INAMRINONE], the AC50 is above 30 µM in experiment [1] and above 20 µM in [6].
As to `Cn1cnc2c(F)c(Nc3ccc(Br)cc3Cl)c(C(=O)NOCCO)cc21` [SELUMETINIB], the concentration at half-maximal activity (AC50) was above 30 µM in experiment [7]; above 10 µM in experiment [5]; above 30 µM in experiment [6]; above 10 µM in experiment [4]; above 10 µM in experiment [8].
In [8], `CCN(CC)CCN1C(=O)CN=C(c2ccccc2F)c2cc(Cl)ccc21` [FLURAZEPAM] yielded an AC50 of 5.47 µM.
As for `CC(=O)[C@]1(O)Cc2c(O)c3c(c(O)c2[C@@H](O[C@H]2C[C@H](N)[C@H](O)[C@H](C)O2)C1)C(=O)c1ccccc1C3=O` [IDARUBICIN], in experiment [2], half-maximal activity (AC50) was put at 17 µM.
Regarding `Cc1ncc2n1-c1ccc(Cl)cc1C(c1ccccc1F)=NC2` [MIDAZOLAM], the concentration at half-maximal activity (AC50) in [6] is above 30 µM; in [8], above 10 µM.
As for `COc1ccc2nc3cc(Cl)ccc3c(Nc3cc(CN4CCCC4)c(O)c(CN4CCCC4)c3)c2n1` [PYRONARIDINE], the figures for the AC50 in [2] and in experiment [3] were above 30 µM and above 10 µM, respectively.
Turning to `Oc1ccc2c(c1)[C@@]13CCCC[C@@]1(O)[C@@H](C2)N(CC1CCC1)CC3` [BUTORPHANOL], the concentration at half-maximal activity (AC50) in experiment [2], in experiment [3] and in experiment [9] was above 30 µM in each case.
In experiment [5], `CC(=O)[C@@]1(O)CC[C@H]2[C@@H]3C=C(Cl)C4=CC(=O)[C@@H]5C[C@@H]5[C@]4(C)[C@H]3CC[C@@]21C` [CYPROTERONE] showed an AC50 above 10 µM.
For the molecule `C#CCOc1ccc(N)cc1C(=O)NCCCC` [PARSALMIDE], the AC50 in experiment [2] and in experiment [3] was above 30 µM throughout.
For `CCN1CCCC1CNC(=O)c1cc(S(=O)(=O)CC)c(N)cc1OC` (stereo unspecified) [AMISULPRIDE], the AC50 in experiment [9] is above 30 µM.
For `CC(=O)OCC(=O)[C@@]1(O)[C@H](C)C[C@H]2[C@@H]3CCC4=CC(=O)C=C[C@]4(C)[C@@]3(F)[C@@H](O)C[C@@]21C` [DEXAMETHASONE ACETATE], the AC50 in experiment [7] is above 30 µM; in experiment [6], above 30 µM; in experiment [4] it was above 10 µM; in [8] it was above 10 µM.
Consider `Cn1c(=O)cc(N2CCC[C@@H](N)C2)n(Cc2ccccc2C#N)c1=O` [ALOGLIPTIN], for which the concentration at half-maximal activity (AC50) in [7] was above 30 µM; in experiment [1], above 30 µM; in experiment [5] it was above 10 µM; in experiment [6], above 30 µM; in experiment [4] it was above 10 µM; in [8] it was above 10 µM.
Turning to `CCN(CC)C(=O)Nc1ccc(OCC(O)CNC(C)(C)C)c(C(C)=O)c1` (stereo unspecified) [CELIPROLOL], the half-maximal activity concentration (AC50) in experiment [2] and in [3] was above 30 µM each time.
Regarding `COc1ccc(-c2noc(CC(=O)O)c2-c2ccc(OC)cc2)cc1` [MOFEZOLAC], the AC50 in experiment [2] and in [3] was above 30 µM each time.
As for `O=C1CN=C(c2ccccn2)c2cc(Br)ccc2N1` [BROMAZEPAM], in experiment [1], the AC50 was above 10 µM.
`NC(=O)CN1CCCC1=O` gave an AC50 in experiment [9] above 30 µM.
Take `C=C1/C(=C\C=C2/CCC[C@]3(C)[C@@H]([C@H](C)/C=C/[C@@H](O)C4CC4)CC[C@@H]23)C[C@@H](O)C[C@@H]1O` [CALCIPOTRIENE]: the figures for the AC50 in experiment [2], in experiment [3] and in experiment [8] were above 30 µM, 28 µM and above 30 µM, respectively.
